Data reported in paper PMC3585840 (Drugs in R&D, 2012).
Where two headings read alike, the source gives them in different places.

Tests used:
[1] = tested on: spontaneously hypertensive rats (SHR); conditions: cited from earlier work
[2] = type: in vivo, human
[3] = Supine blood pressure and ECG-measured heart rate; type: in vivo, human; conditions: for decrease of supine DBP Emax in relation to day 1 / decrease of supine DBP AUCEC in relation to day 1: repeated dosing
[4] = Plasma pharmacokinetics, rising multiple-dose study; type: in vivo, human
[5] = Safety and tolerability; type: in vivo, human
[6] = tested on: urinary levels of norepinephrine, dopamine, epinephrine and homovanillic acid; assay: Urinary catecholamine excretion; type: in vivo, human; conditions: for decrease of urinary excretion of norepinephrine at day 10 in relation to day 1: 24-hour urine
[7] = healthy subjects; cited from earlier work
[8] = cited from earlier work
[9] = tested on: DβH; conditions: cited from earlier work
[10] = etamicastat 25–600 mg once daily for 10 days

SMILES: Cl.NCCc1c[nH]c(=S)n1[C@H]1COc2c(F)cc(F)cc2C1 [Etamicastat, (R)-5-(2-aminoethyl)-1-(6,8-difluorochroman-3-yl)-1,3-dihydroimidazole-2-thione hydrochloride]
- blood pressure and norepinephrine urinary excretion ([1]; chronically administered in drinking water, SHR rats): significantly reduced
- urinary excretion of dopamine ([1]; chronically administered in drinking water, only in SHR rats): increased significantly
- systolic and diastolic blood pressure (but not the heart rate) ([1]; oral administration, SHR rats, dose-dependent, not observed in normotensive control rats): decreased
- urinary excretion rate ([2]; first dose, etamicastat 25 mg): 0.3 ± 0.1 mg/h
- urinary excretion rate ([2]; first dose, etamicastat 600 mg): 8.5 ± 3.2 mg/h
- urinary excretion rate ([2]; last dose, etamicastat 25 mg): 0.4 ± 0.2 mg/h
- urinary excretion rate ([2]; last dose, etamicastat 600 mg): 10.6 ± 2.8 mg/h
- CL renal ([2]; male, human, urine and plasma, po): 198 to 267 mL/min
- decrease of supine DBP Emax in relation to day 1 ([3]; etamicastat 100 mg, p < 0.01): 5.6 mmHg
- decrease of supine DBP AUCEC in relation to day 1 ([3]; etamicastat 100 mg, p < 0.05): 223 mmHg · h
- decrease of supine DBP AUCEC in relation to day 1 ([3]; etamicastat 200 mg, p < 0.05): 193 mmHg · h
- decrease of supine DBP Emax in relation to day 1 ([3]; etamicastat 200 mg, p < 0.05): 5.9 mmHg
- change in SBP and HR ([3]; following repeated dosing, any dose level): did not significantly change
- changes in SBP, DBP or HR ([3]; following the first dose, etamicastat 25–600 mg): no significant changes
- days of dosing until steady-state plasma concentrations were attained ([4]; all dose groups 25–600 mg once daily): up to 9 days
- linearity of pharmacokinetics ([4]; dose range 25–600 mg): linear pharmacokinetics
- day at which steady state was reached (trough plasma concentrations) ([4]; etamicastat 200 mg once daily): 9 days
- day at which steady state was reached (trough plasma concentrations) ([4]; etamicastat 400 mg once daily): 8 days
- effect of NAT1 phenotype on etamicastat pharmacokinetics ([4]; etamicastat 25–600 mg): No relevant effect
- half-life ([4]; male, human, plasma, oral, mean apparent t1/2 following the first dose, range over etamicastat 25–600 mg, plasma): 9 to 15 h
- mean observed accumulation ratio (RO) ([4]; range over etamicastat 25–600 mg once daily for 10 days): 1.3–1.9
- time after dosing at which maximum concentration (Cmax) was reached ([4]; range over etamicastat 25–600 mg once daily, plasma): 1 to 3 h
- day at which steady state was reached (trough plasma concentrations) ([4]; remaining dose groups): < 6 days
- subjects reporting diarrhea as an AE ([5]; 600 mg etamicastat group): 83%
- clinical laboratory evaluations [5, 10]: no clinically significant abnormality
- intensity of adverse events [5, 10]: mild to moderate
- serious adverse events [5, 10]: no serious AEs
- tolerability ([5]; etamicastat up to 600 mg once daily for 10 days): generally well tolerated
- change in urinary excretion of homovanillic acid, epinephrine and dopamine ([6]; day 1 to day 10, all dose groups): No relevant changes
- decrease in norepinephrine urinary excretion ([6]; doses of etamicastat 100 mg and above, day 10 vs day 1): 32–36%
- decrease of urinary excretion of norepinephrine at day 10 in relation to day 1 ([6]; etamicastat 25 mg once daily): 24%
- decrease of urinary excretion of norepinephrine at day 10 in relation to day 1 ([6]; etamicastat 50 mg once daily): 18%
- decrease of urinary excretion of norepinephrine at day 10 in relation to day 1 ([6]; etamicastat 100 mg once daily): 36%
- decrease of urinary excretion of norepinephrine at day 10 in relation to day 1 ([6]; etamicastat 200 mg once daily): 34%
- decrease of urinary excretion of norepinephrine at day 10 in relation to day 1 ([6]; etamicastat 400 mg once daily): 32%
- decrease of urinary excretion of norepinephrine at day 10 in relation to day 1 ([6]; etamicastat 600 mg once daily): 34%
- effect of food on absorption [7]: delayed by the presence of food
- effect of food on extent of systemic exposure (AUC) [7]: no significant effect
- time of maximum plasma concentrations (Cmax) after dosing ([8]; single dose 2–1200 mg): 1 to 3 h
- tolerability ([8]; single doses 2–1200 mg): well tolerated at all the investigated dose levels
- longer elimination half-life (t1/2) ([8]; single etamicastat doses ≥100 mg): 16 to 20 h

SMILES: NCc1c[nH]c(=S)n1[C@H]1CCc2c(F)cc(F)cc2C1 [Nepicastat]
- potency as DβH inhibitor versus first- and second-generation inhibitors [9]: much greater potency
